We go through 5 compounds from patent US8802597B2, “Herbicidal pyrimidines” (E I du Pont de Nemours and Company, priority 2003, dated 2014).

Assay in all cases: Test A pre/postemergence
Assay type in all cases: in vivo

Assay [1] deals with barnyardgrass (Echinochloa crus-galli). The gist of the method:
(§1)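 Seeds sown in loam–sand blend received a preemergence directed soil spray of test chemical in non-phytotoxic solvent with surfactant; same-formulation postemergence spray given concurrently to plants 2–10 cm tall at 1- to 2-leaf stage. Greenhouse ~ten days, then visual injury rating versus untreated controls, 0 (no effect) to 100 (complete control).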

Assay [2] relates to crabgrass (Digitaria sanguinalis). The gist of the method: as §1
Assay [3] concerns giant foxtail (Setaria faberi). In short, it runs like this:
as §1

The test system of assay [4] is morningglory (Ipomoea spp.). In short, it runs like this: as §1
In assay [5] the test system is redroot pigweed (Amaranthus retroflexus). The gist of the method: as §1
The test system of assay [6] is velvetleaf (Abutilon theophrasti). The gist of the method:
as §1

[7] abbreviates: Postemergence, 125 g ai/ha, 0 to 100 scale (0 no effect, 100 complete control).
Setting [8] is: Postemergence, 500 g ai/ha, 0 to 100 scale (0 no effect, 100 complete control).
Where [9] appears, read: Preemergence, 125 g ai/ha, 0 to 100 scale where 0 is no effect and 100 is complete control, approximately ten days.
Setting [10] is: Preemergence, 500 g ai/ha, 0 to 100 scale where 0 is no effect and 100 is complete control, approximately ten days.

Each structure is given as a SMILES string.

In the case of `Nc1nc(-c2ccc(F)cc2)nc(C(=O)O)c1Br` [Compound 93], the “Plant response rating, Barnyardgrass” value in assay [1] (setting [7]) turned out to be 0; in assay [1] (setting [8]), 0; in assay [1] (setting [9]) it was 5; in assay [1] (setting [10]), 30. Moreover, the “Plant response rating, Crabgrass” value in assay [2] (setting [7]) is 0; in assay [2] (setting [8]), 0; in assay [2] (setting [9]), 25; in assay [2] (setting [10]), 45. Besides, the “Plant response rating, Foxtail, Giant” value is recorded as 0 in assay [3] (setting [7]), 0 in assay [3] (setting [8]), 5 in assay [3] (setting [9]) and 35 in assay [3] (setting [10]). Moreover, the “Plant response rating, Morningglory” value was 40 in assay [4] (setting [7]), 55 in assay [4] (setting [8]), 0 in assay [4] (setting [9]) and 5 in assay [4] (setting [10]). For the same compound, the “Plant response rating, Pigweed” value is given as 45 in assay [5] (setting [7]), 70 in assay [5] (setting [8]), 80 in assay [5] (setting [9]) and 90 in assay [5] (setting [10]). Moreover, the “Plant response rating, Velvetleaf” value in assay [6] (setting [7]) was determined as 65; in assay [6] (setting [8]), 80; in assay [6] (setting [9]), 55; in assay [6] (setting [10]), 85.
For the compound `Nc1nc(C2CC2)nc(OCC(=O)[O-])c1Cl.[Na+]` [Compound 116], the “Plant response rating, Barnyardgrass” value in assay [1] (setting [7]) was 0; in assay [1] (setting [8]) it was 0; in assay [1] (setting [9]) it was 10; in assay [1] (setting [10]), 20. Further, the “Plant response rating, Crabgrass” value in assay [2] (setting [7]) is given as 0; in assay [2] (setting [8]), 0; in assay [2] (setting [9]), 0; in assay [2] (setting [10]), 10. Also, the “Plant response rating, Foxtail, Giant” value in assay [3] (setting [7]), in assay [3] (setting [8]), in assay [3] (setting [9]) and in assay [3] (setting [10]) was 0 in each case. Besides, the “Plant response rating, Morningglory” value in assay [4] (setting [7]) is listed as 40; in assay [4] (setting [8]), 60; in assay [4] (setting [9]) it was 30; in assay [4] (setting [10]), 50. For the same compound, the “Plant response rating, Pigweed” value in assay [5] (setting [7]) worked out at 20; in assay [5] (setting [8]), 35; in assay [5] (setting [9]), 30; in assay [5] (setting [10]) it was 50. Further, the “Plant response rating, Velvetleaf” value came to 15 in assay [6] (setting [7]), 40 in assay [6] (setting [8]), 0 in assay [6] (setting [9]) and 15 in assay [6] (setting [10]).
Consider `COC(=O)COC(=O)c1nc(C2CC2)nc(N)c1Cl` [Compound 148], for which the “Plant response rating, Barnyardgrass” value was found to be 68 in assay [1] (setting [7]), 90 in assay [1] (setting [8]), 65 in assay [1] (setting [9]) and 85 in assay [1] (setting [10]). The “Plant response rating, Crabgrass” value worked out at 10 in assay [2] (setting [7]), 85 in assay [2] (setting [8]), 45 in assay [2] (setting [9]) and 90 in assay [2] (setting [10]). Besides, the “Plant response rating, Foxtail, Giant” value in assay [3] (setting [7]) came out at 45; in assay [3] (setting [8]), 80; in assay [3] (setting [9]) it was 40; in assay [3] (setting [10]), 80. Further, the “Plant response rating, Morningglory” value is given as 90 in assay [4] (setting [7]), 100 in assay [4] (setting [8]), 90 in assay [4] (setting [9]) and 100 in assay [4] (setting [10]). The “Plant response rating, Pigweed” value in assay [5] (setting [7]) is 75; in assay [5] (setting [8]) it was 95; in assay [5] (setting [9]), 80; in assay [5] (setting [10]) it was 90. Further, the “Plant response rating, Velvetleaf” value in assay [6] (setting [7]) is 75; in assay [6] (setting [8]) it was 95; in assay [6] (setting [9]), 80; in assay [6] (setting [10]), 100.
With `COC(=O)c1nc(-c2ccc(S(C)(=O)=O)cc2)nc(N)c1Cl` [Compound 122], the “Plant response rating, Barnyardgrass” value in assay [1] (setting [7]), in assay [1] (setting [8]), in assay [1] (setting [9]) and in assay [1] (setting [10]) was 0 in each case. In addition, the “Plant response rating, Crabgrass” value in assay [2] (setting [7]), in assay [2] (setting [8]), in assay [2] (setting [9]) and in assay [2] (setting [10]) was 0 each time. For the same compound, the “Plant response rating, Foxtail, Giant” value in assay [3] (setting [7]), in assay [3] (setting [8]), in assay [3] (setting [9]) and in assay [3] (setting [10]) was 0 each time. The “Plant response rating, Morningglory” value in assay [4] (setting [7]), in assay [4] (setting [8]), in assay [4] (setting [9]) and in assay [4] (setting [10]) was 0 in each case. For the same compound, the “Plant response rating, Pigweed” value in assay [5] (setting [7]), in assay [5] (setting [8]), in assay [5] (setting [9]) and in assay [5] (setting [10]) was 0 throughout. For the same compound, the “Plant response rating, Velvetleaf” value in assay [6] (setting [7]), in assay [6] (setting [8]), in assay [6] (setting [9]) and in assay [6] (setting [10]) was 0 in each case.
With `Cc1ccc(-c2nc(N)c(Cl)c(C(=O)O)n2)cc1F` [Compound 87], the “Plant response rating, Barnyardgrass” value in assay [1] (setting [7]) was 50; in assay [1] (setting [8]) it was 90; in assay [1] (setting [9]) it was 0; in assay [1] (setting [10]), 20. The “Plant response rating, Crabgrass” value in assay [2] (setting [7]) was 0; in assay [2] (setting [8]), 10; in assay [2] (setting [9]), 10; in assay [2] (setting [10]), 75. Moreover, the “Plant response rating, Foxtail, Giant” value in assay [3] (setting [7]) is 0; in assay [3] (setting [8]), 30; in assay [3] (setting [9]), 0; in assay [3] (setting [10]) it was 0. For the same compound, the “Plant response rating, Morningglory” value in assay [4] (setting [7]) stood at 0; in assay [4] (setting [8]) it was 15; in assay [4] (setting [9]), 0; in assay [4] (setting [10]), 20. Besides, the “Plant response rating, Pigweed” value in assay [5] (setting [7]) is listed as 55; in assay [5] (setting [8]) it was 90; in assay [5] (setting [9]) it was 85; in assay [5] (setting [10]), 100. Besides, the “Plant response rating, Velvetleaf” value in assay [6] (setting [7]) came to 90; in assay [6] (setting [8]) it was 95; in assay [6] (setting [9]), 25; in assay [6] (setting [10]) it was 95.
